Key:
Assay type in all cases: in vivo
Botrytis cinerea [1] = test: Assay B-7: Botrytis cinerea/grape (Botrytis on grapes); conditions: Botrytis cinerea on grape seedlings cv. Gutedel; 0.02% active substance, spray
Description: Assay B-7: Botrytis cinerea/Grape (Botrytis on Grapes) 5 week old grape seedlings cv. Gutedel are treated with the formulated testcompound (0.02% active substance) in a spray chamber. Two days after application grape plants are inoculated by spraying a spore suspension (1×10^6 conidia/ml) on the test plants. After an incubation period of 4 days at 21° C. and 95% r. h. in a greenhouse the disease incidence is assessed.

Botrytis cinerea [2] = test: Assay B-8: Effect against Botrytis cinerea/tomato (Botrytis on tomatoes); conditions: Botrytis cinerea on tomato cv. Roter Gnom; 0.02% active substance, spray
Description: Assay B-8: Effect Against Botrytis cinerea/Tomato (Botrytis on Tomatoes) 4 week old tomato plants cv. Roter Gnom are treated with the formulated testcompound 0.02% active substance) in a spray chamber. Two days after application tomato plants are inoculated by spraying a spore suspension (1×10^5 conidia/ml) on the test plants. After an incubation period of 4 days at 20° C. and 95% r. h. in a greenhouse the disease incidence is assessed.

[3] = test system: Pyrenophora teres (Helminthosporium); test: Assay B-10: Effect against Pyrenophora teres (Helminthosporium)/barley (net blotch on barley); conditions: Pyrenophora teres on barley cv. Regina; 0.02% active substance, spray
Description: Assay B-10: Effect Against Pyrenophora teres (Helminthosporium)/Barley (Net Blotch on Barley) 1 week old barley plants cv. Regina are treated with a formulated testcompound (0.02% active substance) in a spray chamber. Two days after application barley plants are inoculated by spraying a spore suspension (3×10^4 conidia/ml) on the test plants. After an incubation period of 2 days at 20° C. and 95% r.h. plants are kept for 2 days at 20° C. and 60% r.h. in a greenhouse. The disease incidence is assessed 4 days after inoculation.

Septoria nodorum = test: Assay B-12: Effect against Septoria nodorum/wheat (Septoria leaf spot on wheat); conditions: Septoria nodorum on wheat cv. Arina; 0.02% active substance, spray
Description: Assay B-12: Effect Against Septoria nodorum/Wheat (Septoria Leaf Spot on Wheat) 1 week old wheat plants cv. Arina are treated with a formulated test compound (0.02% active substance) in a spray chamber. One day after application wheat plants are inoculated by spraying a spore suspension (5×10^5 conidia/ml) on the test plants. After an incubation period of 1 day at 20° C. and 95% r.h. plants are kept for 10 days at 20° C. and 60% r.h. in a greenhouse. The disease incidence is assessed 11 days after inoculation.

SMILES	B7 activity (Botrytis cinerea [1])	B8 activity (Botrytis cinerea [2])	B10 activity [3]	B12 activity (Septoria nodorum)
CCCC(CO)Nc1cc(-c2ccnc(Nc3cccc(Cl)c3)n2)ccn1 (stereo not shown) [Compound 27]	+ (the activity observed in the corresponding test system is 70% or more)	+ (the activity observed in the corresponding test system is 70% or more)	+ (the activity observed in the corresponding test system is 70% or more)	+ (the activity observed in the corresponding test system is 70% or more)
CCOCCNc1cc(-c2ccnc(Nc3cccc(Cl)c3)n2)ccn1 [Compound 26]	+ (the activity observed in the corresponding test system is 70% or more)	+ (the activity observed in the corresponding test system is 70% or more)	+ (the activity observed in the corresponding test system is 70% or more)	+ (the activity observed in the corresponding test system is 70% or more)
CN(C)C=Nc1cc(-c2ccnc(Nc3cccc(Cl)c3)n2)ccn1 [Compound 97]	–	+ (the activity observed in the corresponding test system is 70% or more)	+ (the activity observed in the corresponding test system is 70% or more)	+ (the activity observed in the corresponding test system is 70% or more)
Clc1cccc(Nc2nccc(-c3ccnc(NCc4ccccn4)c3)n2)c1 [Compound 79]	–	+ (the activity observed in the corresponding test system is 70% or more)	+ (the activity observed in the corresponding test system is 70% or more)	–
Clc1cccc(Nc2nccc(-c3ccnc(NCC4CCOC4)c3)n2)c1 (stereo not shown) [Compound 84]	–	+ (the activity observed in the corresponding test system is 70% or more)	+ (the activity observed in the corresponding test system is 70% or more)	+ (the activity observed in the corresponding test system is 70% or more)
CC(CCc1ccccn1)Nc1cc(-c2ccnc(Nc3cccc(Cl)c3)n2)ccn1 (stereo not shown) [Compound 71]	–	–	+ (the activity observed in the corresponding test system is 70% or more)	+ (the activity observed in the corresponding test system is 70% or more)
C[S+]([O-])CCNc1cc(-c2ccnc(Nc3cccc(Cl)c3)n2)ccn1 (stereo not shown) [Compound 74]	–	–	–	+ (the activity observed in the corresponding test system is 70% or more)
O=C(O)CNc1cc(-c2ccnc(Nc3cccc(Cl)c3)n2)ccn1 [Compound 3]	–	+ (the activity observed in the corresponding test system is 70% or more)	+ (the activity observed in the corresponding test system is 70% or more)	+ (the activity observed in the corresponding test system is 70% or more)
CO[Si](CCCNc1cc(-c2ccnc(Nc3cccc(Cl)c3)n2)ccn1)(OC)OC [Compound 100]	–	+ (the activity observed in the corresponding test system is 70% or more)	–	–
NCCNc1cc(-c2ccnc(Nc3cccc(Cl)c3)n2)ccn1 [Compound 1]	–	–	+ (the activity observed in the corresponding test system is 70% or more)	–
Clc1cccc(Nc2nccc(-c3ccnc(NCc4ccco4)c3)n2)c1 [Compound 78]	–	+ (the activity observed in the corresponding test system is 70% or more)	–	–
Clc1cccc(Nc2nccc(-c3ccnc(NC4CCOC4)c3)n2)c1 (stereo not shown) [Compound 2]	–	–	+ (the activity observed in the corresponding test system is 70% or more)	+ (the activity observed in the corresponding test system is 70% or more)
O=C(Nc1cc(-c2ccnc(Nc3cccc(Cl)c3)n2)ccn1)C(F)(F)C(F)(F)F [Compound 93]	+ (the activity observed in the corresponding test system is 70% or more)	+ (the activity observed in the corresponding test system is 70% or more)	+ (the activity observed in the corresponding test system is 70% or more)	–
CCC(=O)OCCCNc1cc(-c2ccnc(Nc3cccc(Cl)c3)n2)ccn1 [Compound 106]	–	+ (the activity observed in the corresponding test system is 70% or more)	+ (the activity observed in the corresponding test system is 70% or more)	+ (the activity observed in the corresponding test system is 70% or more)
CCCCC(=O)Nc1cc(-c2ccnc(Nc3cccc(Cl)c3)n2)ccn1 [Compound 62]	–	–	+ (the activity observed in the corresponding test system is 70% or more)	+ (the activity observed in the corresponding test system is 70% or more)
CCN(COC)c1cc(-c2ccnc(Nc3cccc(Cl)c3)n2)ccn1 [Compound 98]	–	–	+ (the activity observed in the corresponding test system is 70% or more)	–
COC(CNc1cc(-c2ccnc(Nc3cccc(Cl)c3)n2)ccn1)OC [Compound 87]	–	–	+ (the activity observed in the corresponding test system is 70% or more)	+ (the activity observed in the corresponding test system is 70% or more)
CC(CCn1ccnc1)Nc1cc(-c2ccnc(Nc3cccc(Cl)c3)n2)ccn1 (stereo not shown) [Compound 16]	–	+ (the activity observed in the corresponding test system is 70% or more)	+ (the activity observed in the corresponding test system is 70% or more)	+ (the activity observed in the corresponding test system is 70% or more)
CCCC(COC(C)=O)Nc1cc(-c2ccnc(Nc3cccc(Cl)c3)n2)ccn1 (stereo not shown) [Compound 53]	–	+ (the activity observed in the corresponding test system is 70% or more)	–	–
Clc1cccc(Nc2nccc(-c3ccnc(NCCc4ccccn4)c3)n2)c1 [Compound 90]	–	+ (the activity observed in the corresponding test system is 70% or more)	+ (the activity observed in the corresponding test system is 70% or more)	–
CC(CCN(C)C)Nc1cc(-c2ccnc(Nc3cccc(Cl)c3)n2)ccn1 (stereo not shown) [Compound 19]	–	+ (the activity observed in the corresponding test system is 70% or more)	–	–
CC(O)CNc1cc(-c2ccnc(Nc3cccc(Cl)c3)n2)ccn1 (stereo not shown) [Compound 76]	–	–	+ (the activity observed in the corresponding test system is 70% or more)	+ (the activity observed in the corresponding test system is 70% or more)
CS(=O)(=O)O.NCCCNc1cc(-c2ccnc(Nc3cccc(Cl)c3)n2)ccn1 [Compound 48]	–	+ (the activity observed in the corresponding test system is 70% or more)	+ (the activity observed in the corresponding test system is 70% or more)	+ (the activity observed in the corresponding test system is 70% or more)
CCC(COC(C)=O)Nc1cc(-c2ccnc(Nc3cccc(Cl)c3)n2)ccn1 (stereo not shown) [Compound 51]	–	–	+ (the activity observed in the corresponding test system is 70% or more)	+ (the activity observed in the corresponding test system is 70% or more)
Clc1cccc(Nc2nccc(-c3ccnc(NCc4cccnc4)c3)n2)c1 [Compound 102]	–	+ (the activity observed in the corresponding test system is 70% or more)	+ (the activity observed in the corresponding test system is 70% or more)	–
NCCCNc1cc(-c2ccnc(Nc3cccc(Cl)c3)n2)ccn1 [Compound 42]	–	+ (the activity observed in the corresponding test system is 70% or more)	+ (the activity observed in the corresponding test system is 70% or more)	+ (the activity observed in the corresponding test system is 70% or more)
CC(CCNc1cc(-c2ccnc(Nc3cccc(Cl)c3)n2)ccn1)n1ccnc1 (stereo not shown) [Compound 36]	–	–	+ (the activity observed in the corresponding test system is 70% or more)	–
COCN(C)c1cc(-c2ccnc(Nc3cccc(Cl)c3)n2)ccn1 [Compound 91]	–	–	+ (the activity observed in the corresponding test system is 70% or more)	+ (the activity observed in the corresponding test system is 70% or more)
CC(=O)OCCNc1cc(-c2ccnc(Nc3cccc(Cl)c3)n2)ccn1 [Compound 52]	–	–	+ (the activity observed in the corresponding test system is 70% or more)	+ (the activity observed in the corresponding test system is 70% or more)
Clc1cccc(Nc2nccc(-c3ccnc(NCCCOc4ncccn4)c3)n2)c1 [Compound 94]	–	+ (the activity observed in the corresponding test system is 70% or more)	+ (the activity observed in the corresponding test system is 70% or more)	–

Reference: US7109197B2, “N-phenyl-4-(4-pyridyl)-2-pyrimidineamine derivatives” (Syngenta Crop Protection, Inc., priority 2000, dated 2006)
